The results in this text go back to the Kinase Knowledgebase extract (Sharma et al. 2016).

In test [1] the target is EGFR (murine) (UniProt P00533). The conditions noted are these: her 14.
For test [2], the target named is EGFR (murine) (UniProt P00533). The conditions noted are these: for IC50: her 14.
In test [3] the target is EGFR (UniProt P00533).

The structures appear in SMILES notation. Some results are limits rather than exact numbers.

Chain of EGFR (P00533 whole entry, looked up): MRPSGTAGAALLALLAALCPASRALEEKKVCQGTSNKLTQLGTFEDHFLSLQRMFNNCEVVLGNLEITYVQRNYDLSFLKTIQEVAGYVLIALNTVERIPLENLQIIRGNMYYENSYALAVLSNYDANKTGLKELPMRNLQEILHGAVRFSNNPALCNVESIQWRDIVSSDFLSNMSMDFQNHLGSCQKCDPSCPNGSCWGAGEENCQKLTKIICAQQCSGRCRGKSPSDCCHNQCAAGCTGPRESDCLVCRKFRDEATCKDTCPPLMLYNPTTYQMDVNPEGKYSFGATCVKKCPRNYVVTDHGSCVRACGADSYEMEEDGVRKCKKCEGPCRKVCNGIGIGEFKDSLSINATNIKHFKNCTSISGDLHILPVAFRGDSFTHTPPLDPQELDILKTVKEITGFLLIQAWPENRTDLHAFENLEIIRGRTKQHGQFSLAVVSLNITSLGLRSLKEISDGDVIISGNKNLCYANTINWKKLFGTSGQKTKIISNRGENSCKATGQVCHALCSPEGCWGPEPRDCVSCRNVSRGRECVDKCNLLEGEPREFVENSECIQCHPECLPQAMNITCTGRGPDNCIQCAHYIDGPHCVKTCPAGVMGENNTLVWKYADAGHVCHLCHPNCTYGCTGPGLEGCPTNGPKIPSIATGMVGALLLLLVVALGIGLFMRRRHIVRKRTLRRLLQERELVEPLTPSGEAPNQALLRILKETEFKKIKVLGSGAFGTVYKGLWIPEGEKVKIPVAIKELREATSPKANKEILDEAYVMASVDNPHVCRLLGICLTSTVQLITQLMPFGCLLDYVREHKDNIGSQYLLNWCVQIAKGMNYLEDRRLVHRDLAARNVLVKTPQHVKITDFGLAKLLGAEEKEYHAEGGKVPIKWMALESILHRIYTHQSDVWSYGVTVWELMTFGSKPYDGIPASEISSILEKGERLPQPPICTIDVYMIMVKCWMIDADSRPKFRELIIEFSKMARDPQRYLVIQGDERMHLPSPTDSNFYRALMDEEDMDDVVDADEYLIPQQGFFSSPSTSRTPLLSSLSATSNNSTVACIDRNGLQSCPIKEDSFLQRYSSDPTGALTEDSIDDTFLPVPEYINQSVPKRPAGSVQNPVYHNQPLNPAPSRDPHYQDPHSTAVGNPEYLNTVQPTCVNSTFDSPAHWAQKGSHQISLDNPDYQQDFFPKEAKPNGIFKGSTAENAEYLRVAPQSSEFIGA
Chain of EGFR (murine) (P00533 whole entry, looked up): as above

For `N#C/C(=C\c1ccc(O)c(O)c1)C(=O)c1ccc([N+](=O)[O-])cc1`, the IC50 (commonly the concentration that inhibits the measured activity by half) was 20 µM in test [1] and below 20 µM in test [2]. In test [1], `N#C/C(=C/c1ccc(O)c(O)c1)C(=O)NC1CCCCC1` registered an IC50 of 15 µM. On to `N#C/C(=C\c1ccc(O)c(O)c1)C(=O)NC1CCCCC1`, for which the IC50 in test [2] came out at 50 µM.

As to `N#CC(C#N)=C1C(=O)Nc2cc(O)c(O)cc21`, the IC50 in test [1] is above 16 µM. Consider `Cc1cccc(C)c1NC(=O)/C(C#N)=C/c1ccc(O)c(O)c1`, for which the IC50 in test [2] was above 20 µM.

Turning to `N#C/C(=C\c1ccc(O)c(O)c1)C(=O)NCCCCc1ccccc1`, the IC50 in test [1] came out at 3 µM; in test [2] it was 10 µM. For `N#C/C(=C\c1ccc(O)c(O)c1)C(N)=O`, the IC50 in test [3] turned out to be 10 µM; in test [1], 15 µM; in test [2], 60 µM. Consider `COc1cc2c(cc1O)NC(=O)C2=C(C#N)C#N`, for which the IC50 in test [1] was at least 120 µM. For the compound `N#CC(C#N)=C1CCc2cc(O)c(O)cc21`, the IC50 is 30 µM in test [1] and above 150 µM in test [2]. Turning to `N#CC(C#N)=C1C(=O)Nc2ccc([N+](=O)[O-])cc21`, the IC50 in test [1] stood at 20 µM. The compound `N#C/C(=C/c1ccc(O)c(O)c1)C(=O)NCc1ccccc1` registered an IC50 in test [1] of 3.5 µM. `N#C/C(=C\c1ccc(O)c(O)c1)C(=O)NCCCc1ccccc1`: the IC50 in test [1] is 2.5 µM; in test [2] it was 25 µM. `N#CC(C#N)=Cc1cccc(O)c1` registered an IC50 in test [3] of 375 µM. Consider `N#C/C(=C\c1ccc(O)c(O)c1)C(=O)c1ccc(F)cc1`, for which the IC50 in test [1] was 20 µM; in test [2], 80 µM. In the case of `N#C/C(=C\c1ccc(O)c(O)c1)C(=O)Nc1ccccc1Cl`, the IC50 came out at 35 µM in test [1] and 12 µM in test [2]. Taken in the same sequence, the figures for `Cc1ccc(C(=O)/C(C#N)=C/c2ccc(O)c(O)c2)cc1` were 7 µM and 100 µM. In test [1], `N#CC(C#N)=Cc1ccc2[nH]ccc2c1` had an IC50 above 100 µM. In turn, `N#CC(C#N)=Cc1cc[n+]([O-])cc1` displayed an IC50 in test [3] of 1300 µM. As for `N#C/C(=C\c1ccc(O)c(O)c1)C(=O)c1ccccc1`, the IC50 in test [1] stood at 15 µM; in test [2], 120 µM. In the case of `CC(NC(=O)/C(C#N)=C/c1ccc(O)c(O)c1)c1ccccc1` (stereo not given), the IC50 came to 3.5 µM in test [1] and 10 µM in test [2]. The inhibition (in general, the share of the control response that was lost under treatment) in test [2] (her 14, dose or concentration not given here) came to 0.88%. The compound `COc1cc(C=C(C#N)C#N)ccc1O` yielded an IC50 in test [3] of 200 µM. As for `N#C/C(=C\c1ccc(O)c(O)c1)C(=O)N1CCc2ccccc21`, the IC50 turned out to be 25 µM in test [1] and 100 µM in test [2].
